Reference: ChEMBL document CHEMBL3763013, “Prospective of curcumin, a pleiotropic signalling molecule from Curcuma longa in the treatment of Glioblastoma” (Eur J Med Chem, 2016)

Assays:
[1] = system: Plasma; assay: Drug metabolism in human plasma assessed as compound sulfate conjugate at 3.6 g/day, po measured after 0.5 and 1 hr; format: ADME, organism-based
[2] = Drug excretion in human urine at 3.6 g/day, po; format: ADME, tissue-based
[3] = Plasma concentration in human at 3.6 g/day, po measured after 0.5 and 1 hr; format: ADME, organism-based
[4] = Drug uptake in human serum at 6 g/day, po administered for 3 months; format: ADME, organism-based; settings: read-out: Drug uptake
[5] = Drug uptake in human serum at 8 g/day, po administered for 3 months; format: ADME, organism-based; settings: read-out: Drug uptake
[6] = Half life in human at 10 g, po administered as single dose; format: ADME, organism-based; settings: in vivo
[7] = Drug uptake in human malignant colorectal tissue at 3.6 g/day, po; format: ADME
[8] = system: Plasma; assay: Plasma concentration in human at 2 g, po; format: ADME
[9] = Drug uptake in human normal colorectal tissue at 3.6 g/day, po; format: ADME
[10] = Drug metabolism in human urine assessed as compound sulfate conjugate at 3.6 g/day, po measured after 0.5 and 1 hr; format: ADME, organism-based; settings: in vivo
[11] = Cmax in human at 10 g, po administered as single dose; format: ADME, organism-based; parameters: dose 10 g, route oral; settings: in vivo
[12] = Drug metabolism in human urine assessed as compound glucuronide conjugate at 3.6 g/day, po measured after 0.5 and 1 hr; format: ADME, organism-based; settings: in vivo
[13] = system: U138MG; assay: Inhibition of PI3K in human U138MG cells assessed as decrease in phosphorylated AKT level by western blot analysis; format: cell-based
[14] = system: Homo sapiens; assay: Drug metabolism in human assessed as ratio of glucuronide to sulfate at 10 and 12 g, po administered as single dose; format: ADME, organism-based; settings: in vivo
[15] = Cmax in human at 12 g, po administered as single dose; format: ADME, organism-based; parameters: dose 12 g, route oral; settings: in vivo
[16] = Tmax in human at 12 g, po administered as single dose; format: ADME, organism-based; settings: in vivo
[17] = Tmax in human at 10 g, po administered as single dose; format: ADME, organism-based; settings: in vivo
[18] = Drug uptake in human serum at 4 g/day, po administered for 3 months; format: ADME, organism-based; settings: read-out: Drug uptake
[19] = system: Plasma; assay: Drug metabolism in human plasma assessed as compound glucuronide conjugate at 3.6 g/day, po measured after 0.5 and 1 hr; format: ADME, organism-based
[20] = Half life in human at 12 g, po administered as single dose; format: ADME, organism-based; settings: in vivo

- Drug metabolism [1]: 8.9 nmol/L
- Drug excretion [2]: 0.1 µmol/L
- concentration at 1 h [3]: 11.1 nM
- concentration at 3 months [4]: 630 nM
- concentration at 3 months [5]: 1770 nM
- half-life [6]: 6.77 h
- Drug uptake [7]: 7.7 nmol/g
- Cp [8]: 10 ng/mL
- Drug uptake [9]: 12.7 nmol/g
- Drug metabolism [10]: 19 nmol/L
- Cmax [11]: 2300 ng/mL
- Drug metabolism [12]: 210 nmol/L
- Ratio [14]: 1.92
- Cmax [15]: 1730 ng/mL
- Tmax [16]: 3.29 h
- Tmax [17]: 3.29 h
- concentration at 3 months [18]: 510 nM
- Drug metabolism [19]: 15.8 nmol/L
- half-life [20]: 6.77 h
SMILES: COc1cc(/C=C/C(=O)CC(=O)/C=C/c2ccc(O)c(OC)c2)ccc1O [CURCUMIN]
- inhibition [13]: 80%
